This is an account of results in US20250228827A1, “METHODS OF TREATING ERYTHROPOIETIC PROTOPORPHYRIA, X-LINKED PROTOPORPHYRIA, OR CONGENITAL ERYTHROPOIETIC PORPHYRIA WITH GLYCINE TRANSPORT INHIBITORS” (Disc Medicine, Inc., priority 2021, published 2025).

One experiment has as its system K562 clone 10-9 cells. As to the kind of experiment: PPIX accumulation in K562-EPP cellular model (Clone 10-9), flow cytometry. Type of experiment: cell-based. The following applies: for effect on PPIX accumulation by flow cytometry: 96 hours; for IC50: Homo sapiens, 96 hours at 37° C., flow cytometry, read-out: IC50 of inhibition of PPIX accumulation. On the procedure: CRISPR-Cas9 technology was utilized to generate genetic changes in the Ferrochelatase gene (FECH). Guide RNA sgRNA-1 was designed to target Exon 3 of FECH genetic locus and generate a knockout allele at the FECH genomic locus by introduction of indels that lead to frameshift of the coding sequence and premature stop codon. The K562 cells were cultured in IMDM medium supplemented with 10% fetal bovine serum (FBS), 1% penicillin/streptomycin (PS). CRISPR Cas9 RNP complex with guide RNA (gRNA) was electroporated in K562 cells. The transfection was performed using 4D Nucleofector, SF kit, FF-120 program. The transfected cells were plated at densities of 0.5 cells per well in 96-well plates in complete medium. Cells were allowed to grow until colonies were visible in the well. The K562-EPP subclones were individually expanded and screened for the FECH knockout genotype by PCR of genomic DNA and for the expression of the FECH gene by RT-PCR. K562-Clone 10 is determined to be heterozygous for the FECH knockout allele and has reduced expression level of FECH mRNA than the parental K562 cell line.
In order to introduce the IVS3-T48C mutation into the wild-type allele of the FECH gene in K562-Clone10, CRISPR Cas9 RNP complex with guide RNA sgRNA-2 and single stranded DNA donor were electroporated into the K562-clonel0 that is already heterozygous for the FECH knockout allele generated from the CRISPR-Cas9 gene editing event described in the previous paragraph. sgRNA-2 was designed to target Intron 3, close to the target site IVS3-T48. Similarly, single-cell clones were isolated from this round of gene editing by limited dilution. TA cloning and Sanger sequencing were used to confirm single-cell clones and genotypes. This procedure generated K562 Clone10-IVS-Clone9 (Clone 10-9), which carries the FECH knockout allele in trans with the IVS3-T48C mutation in the other FECH allele.
The effect of GlyT1 inhibitors on reducing PPIX accumulation was evaluated in the K562-EPP cellular model, Clone 10-9. 900 μL of K562 clone 10-9 cells at 2×10^5 cells/mL in IMDM media with 10% FBS and 1% PS were plated into a 24-well plate. After 24-hour incubation, 100 μL of compound in DMSO/media was added in different concentration. The final concentration of DMSO was 0.1%. The compound was incubated for 96 hours at 37° C. Cell viability and cell count were measured by Vi-CELL XR Complete System. Finally, the effect of the compound on PPIX level was determined by flow cytometry.

The test system of experiment [1] is FECH knockdown CD34+ cells. As to the kind of experiment: PPIX accumulation in FECH knockdown CD34+ cells (CD34+-EPP cells), LC-MS/MS. Type of experiment: cell-based, human. The note with it: for effect on PPIX accumulation / IC50: FECH knockdown CD34+ cells; for IC50: Homo sapiens, treated 9 days (day 8 to day 16), LC-MS/MS, read-out: IC50 on PPIX levels. An excerpt: To investigate the effects of GlyT1 inhibitors in human hematopoietic stem cells with an EPP phenotype, lentiviral vectors expressing shRNA of FECH were constructed (Table 2) and transduced at 25 MOI into human cord blood-CD34+ cells purchased from Stemexpress.
Specifically, the purchased CD34+ cells were defrosted and expanded for eight days in serum-free Hematopoietic Progenitor Expansion Medium XF (C-28021) supplemented with Cytokine Mix E (human TPO, SCF, FLT-3 ligand and IL-3, #C-39891). During the expansion phase, CD34 expression was monitored, cells were frozen in a serum-free DMSO-based freezing medium (CryoStor® CS2).
For FECH knock-down experiments, cells expanded from a single vial were used to avoid donor heterogeneity. Freshly defrosted cells were expanded for three days (day 0-day 3) and infected with lentivirus expressing shControl or shFECH at an MOI of 25 in the presence of polybrene. After transduction, shRNA expressing cells were selected in the presence of puromycin (1 ug/ml) for four days (day 4-day 7). FECH expression levels were determined in the shFECH transfected CD34+ cells at Day 8. FECH mRNA level was reduced by ˜80% (0.196±0.307) in the shFECH transfected CD34+ cells (FIG. 5A). FECH protein level was reduced by ˜62% in the shFECH transfected CD34+ cells (FIG. 5B and FIG. 5C).
In order to evaluate the effect of GlyT1 inhibitor on PPIX accumulation in CD34^+-EPP cells, the cells were treated with serial dilutions of the compounds or DMSO control in the erythroid differentiation medium for 9 days (day 8 to day 16). The differentiated erythroid cells were harvested at day 16 and assayed for the intracellular PPIX levels by LC-MS/MS.

For `C[C@@H](Oc1ccc(S(C)(=O)=O)cc1C(=O)N1C[C@@H]2C[C@]2(c2cc(C(F)(F)F)on2)C1)C(F)(F)F` [Compound A], the “effect on PPIX accumulation by flow cytometry” value in the experiment with K562 clone 10-9 cells was “dose-dependent inhibition of PPIX accumulation”. Besides, the IC50 in the experiment with K562 clone 10-9 cells is 43.5 nM; in experiment [1], 97.1 nM. The PPIX pmol/million cells in experiment [1] (0.46 nM, sample 1) worked out at 19.2 pmol/million cells; in experiment [1] (0.46 nM, sample 2), 18.2 pmol/million cells; in experiment [1] (1.37 nM, sample 1), 11.8 pmol/million cells; in experiment [1] (1.37 nM, sample 2), 16.7 pmol/million cells; in experiment [1] (4.12 nM, sample 1), 18.5 pmol/million cells; in experiment [1] (4.12 nM, sample 2), 13.3 pmol/million cells. Besides, the PPIX pmol/million cells is given as 30.1 pmol/million cells in experiment [1] (12.35 nM, sample 1); 20.3 pmol/million cells in experiment [1] (12.35 nM, sample 2); 18.5 pmol/million cells in experiment [1] (37.04 nM, sample 1); 19.4 pmol/million cells in experiment [1] (37.04 nM, sample 2); 7 pmol/million cells in experiment [1] (111.11 nM, sample 1); 7.25 pmol/million cells in experiment [1] (111.11 nM, sample 2). For the same compound, the PPIX pmol/million cells in experiment [1] (333.33 nM, sample 1) stood at 5.97 pmol/million cells; in experiment [1] (333.33 nM, sample 2), 4.69 pmol/million cells; in experiment [1] (1000.00 nM, sample 1) it was 3.94 pmol/million cells; in experiment [1] (1000.00 nM, sample 2), 6.95 pmol/million cells. The “effect on PPIX accumulation” value in experiment [1] was “decreased”.

Consider `C[C@H](Oc1ccc(S(C)(=O)=O)cc1C(=O)N1Cc2cc(C(F)(F)F)cnc2C1)C(F)(F)F` [Compound X], for which, in the experiment with K562 clone 10-9 cells, the “effect on PPIX accumulation by flow cytometry” value was “dose-dependent inhibition of PPIX accumulation”. Also, the IC50 in the experiment on K562 clone 10-9 cells amounted to 76.8 nM; in experiment [1], 33.5 nM. The PPIX pmol/million cells in experiment [1] (0.46 nM, sample 1) is recorded as 25 pmol/million cells; in experiment [1] (0.46 nM, sample 2) it was 27.1 pmol/million cells; in experiment [1] (1.37 nM, sample 1), 27.3 pmol/million cells; in experiment [1] (1.37 nM, sample 2), 46.5 pmol/million cells; in experiment [1] (4.12 nM, sample 1), 34.4 pmol/million cells; in experiment [1] (4.12 nM, sample 2), 24.7 pmol/million cells. Further, the PPIX pmol/million cells in experiment [1] (12.35 nM, sample 1) was found to be 34.6 pmol/million cells; in experiment [1] (12.35 nM, sample 2), 34.6 pmol/million cells; in experiment [1] (37.04 nM, sample 1), 14.7 pmol/million cells; in experiment [1] (37.04 nM, sample 2), 17.5 pmol/million cells; in experiment [1] (111.11 nM, sample 1), 13.6 pmol/million cells; in experiment [1] (111.11 nM, sample 2), 13.5 pmol/million cells. Besides, the PPIX pmol/million cells in experiment [1] (333.33 nM, sample 1) was determined as 14.1 pmol/million cells; in experiment [1] (333.33 nM, sample 2), 15.2 pmol/million cells; in experiment [1] (1000.00 nM, sample 1), 11 pmol/million cells; in experiment [1] (1000.00 nM, sample 2), 12.8 pmol/million cells. The “effect on PPIX accumulation” value in experiment [1] was “decreased PPIX accumulation”.

Broadly, the IC50 is the concentration at which inhibition is half-maximal.
